Data published in patent publication US8975214B2, “Emulsion adjuvant for herbicides” (Innovative Chemical Services Pty Ltd, priority 2010, dated 2015).

Tested on: Oats
Assay: Glasshouse trial: adjuvant effect when applied with glyphosate to control oats
Assay type: in vivo
Details: no adjuvant, 14 days after treatment
Source text: In this example, the adjuvant effect of Compositions C and D from Example 1 was compared with a range of commercially available adjuvants when applied with glyphosate in 2 water hardnesses to control oats in a glasshouse.

O=C(O)CNCP(=O)(O)O [Glyphosate, glyphosate]
Fresh Weight % of untreated control (glyphosate 50 g a.i./ha, water hardness 50 ppm CaCO3, oats 1.5-2 leaf): 73 % of untreated control
Fresh Weight % of untreated control (glyphosate 50 g a.i./ha, water hardness 300 ppm CaCO3): 106 % of untreated control
Fresh Weight % of untreated control (glyphosate 100 g a.i./ha, water hardness 50 ppm CaCO3): 52 % of untreated control
Fresh Weight % of untreated control (glyphosate 100 g a.i./ha, water hardness 300 ppm CaCO3): 65 % of untreated control
